Data as given in ChEMBL document CHEMBL1143919, “Sugar Chips immobilized with synthetic sulfated disaccharides of heparin/heparan sulfate partial structure” (Bioorg Med Chem Lett, 2008).

Columns and labels:
[1] = Binding affinity to human recombinant von Willebrand factor A1 domain using surface plasmon resonance imaging sensor
Fibronectin = Fibronectin (Homo sapiens, UniProt P02751); assay: Binding affinity to fibronectin using surface plasmon resonance imaging sensor method
Sequence of Fibronectin (P02751 whole entry): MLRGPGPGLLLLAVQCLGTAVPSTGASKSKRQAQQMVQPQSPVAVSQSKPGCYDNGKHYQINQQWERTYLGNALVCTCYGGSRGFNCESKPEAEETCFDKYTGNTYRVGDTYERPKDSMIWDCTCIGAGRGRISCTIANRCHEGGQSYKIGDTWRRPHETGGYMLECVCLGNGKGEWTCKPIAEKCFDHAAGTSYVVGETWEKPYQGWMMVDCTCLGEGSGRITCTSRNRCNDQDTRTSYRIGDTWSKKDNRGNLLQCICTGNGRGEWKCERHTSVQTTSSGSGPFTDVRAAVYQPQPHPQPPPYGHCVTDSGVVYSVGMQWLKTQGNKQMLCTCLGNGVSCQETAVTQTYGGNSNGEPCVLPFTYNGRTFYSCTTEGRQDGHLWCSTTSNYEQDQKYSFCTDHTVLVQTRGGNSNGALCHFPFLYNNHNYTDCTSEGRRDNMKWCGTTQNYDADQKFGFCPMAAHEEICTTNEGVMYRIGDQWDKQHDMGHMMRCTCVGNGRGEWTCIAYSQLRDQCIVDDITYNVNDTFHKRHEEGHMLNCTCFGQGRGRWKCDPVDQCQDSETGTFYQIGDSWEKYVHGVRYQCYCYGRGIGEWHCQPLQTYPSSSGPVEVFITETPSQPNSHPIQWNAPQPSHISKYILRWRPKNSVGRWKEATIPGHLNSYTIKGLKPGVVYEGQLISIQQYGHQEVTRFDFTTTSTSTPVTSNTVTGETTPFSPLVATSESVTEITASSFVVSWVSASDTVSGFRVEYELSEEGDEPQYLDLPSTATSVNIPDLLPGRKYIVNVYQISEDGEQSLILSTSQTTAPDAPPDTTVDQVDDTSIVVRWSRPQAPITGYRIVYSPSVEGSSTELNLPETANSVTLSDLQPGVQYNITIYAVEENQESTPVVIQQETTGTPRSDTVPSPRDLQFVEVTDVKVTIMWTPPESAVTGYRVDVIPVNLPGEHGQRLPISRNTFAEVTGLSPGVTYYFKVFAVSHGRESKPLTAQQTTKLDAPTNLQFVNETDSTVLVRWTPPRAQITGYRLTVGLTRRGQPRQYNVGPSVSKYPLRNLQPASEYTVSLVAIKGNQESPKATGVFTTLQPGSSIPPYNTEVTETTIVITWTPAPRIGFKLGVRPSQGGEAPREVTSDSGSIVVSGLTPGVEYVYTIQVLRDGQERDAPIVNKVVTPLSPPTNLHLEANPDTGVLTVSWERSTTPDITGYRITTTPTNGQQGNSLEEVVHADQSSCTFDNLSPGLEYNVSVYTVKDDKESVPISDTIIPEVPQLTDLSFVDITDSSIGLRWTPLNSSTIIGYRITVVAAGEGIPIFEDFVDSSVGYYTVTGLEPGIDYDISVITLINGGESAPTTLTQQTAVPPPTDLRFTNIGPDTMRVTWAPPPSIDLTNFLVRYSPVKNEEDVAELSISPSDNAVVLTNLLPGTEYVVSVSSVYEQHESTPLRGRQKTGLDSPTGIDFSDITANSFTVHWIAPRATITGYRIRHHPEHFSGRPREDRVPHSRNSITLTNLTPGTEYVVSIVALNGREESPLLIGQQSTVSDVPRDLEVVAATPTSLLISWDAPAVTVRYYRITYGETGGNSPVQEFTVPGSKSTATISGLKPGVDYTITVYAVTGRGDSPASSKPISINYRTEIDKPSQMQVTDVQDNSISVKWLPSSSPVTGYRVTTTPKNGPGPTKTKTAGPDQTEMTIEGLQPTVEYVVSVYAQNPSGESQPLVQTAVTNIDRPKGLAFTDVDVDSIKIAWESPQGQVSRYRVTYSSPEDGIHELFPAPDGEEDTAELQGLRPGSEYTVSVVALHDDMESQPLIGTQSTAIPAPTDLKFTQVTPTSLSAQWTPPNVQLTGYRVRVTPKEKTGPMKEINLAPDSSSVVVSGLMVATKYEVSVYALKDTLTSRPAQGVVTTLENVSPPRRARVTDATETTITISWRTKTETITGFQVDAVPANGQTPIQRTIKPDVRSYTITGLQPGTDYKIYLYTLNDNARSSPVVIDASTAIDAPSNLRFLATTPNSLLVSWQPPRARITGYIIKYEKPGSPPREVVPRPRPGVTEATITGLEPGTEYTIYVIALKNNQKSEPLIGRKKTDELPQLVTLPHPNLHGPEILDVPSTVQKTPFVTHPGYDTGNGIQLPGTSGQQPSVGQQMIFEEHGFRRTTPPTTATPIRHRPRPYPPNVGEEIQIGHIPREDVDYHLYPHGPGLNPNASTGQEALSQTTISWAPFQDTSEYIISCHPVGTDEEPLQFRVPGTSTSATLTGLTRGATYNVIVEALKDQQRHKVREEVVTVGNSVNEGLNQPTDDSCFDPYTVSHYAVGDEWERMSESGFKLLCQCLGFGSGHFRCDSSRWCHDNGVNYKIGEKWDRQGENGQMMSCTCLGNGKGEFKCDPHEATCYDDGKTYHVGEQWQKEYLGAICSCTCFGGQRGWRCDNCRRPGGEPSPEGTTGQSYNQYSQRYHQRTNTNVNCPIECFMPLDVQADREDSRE

Question: Which Kd [1] does the source give for `CO[C@H]1[C@H](O)[C@@H](NS(=O)(=O)O)[C@@H](O[C@H]2[C@H](O)[C@@H](OS(=O)(=O)O)[C@H](OC[C@@H](O)[C@@H](O)[C@H](O)[C@@H](O)CNc3cccc(NC(=O)CCCCC4CCSS4)c3)O[C@H]2C(=O)O)O[C@@H]1CO` (stereo partly drawn) here?
Answer: 900 nM

Question: What about the Kd (Fibronectin) of the same molecule?
Answer: 30 nM

Question: For `CO[C@H]1[C@H](O)[C@@H](NS(=O)(=O)O)[C@@H](O[C@H]2[C@H](O)[C@@H](O)[C@H](OC[C@@H](O)[C@@H](O)[C@H](O)[C@@H](O)CNc3cccc(NC(=O)CCCCC4CCSS4)c3)O[C@@H]2C(=O)O)O[C@@H]1COS(=O)(=O)O` (stereo partly drawn), which Kd [1] is on record?
Answer: 1400 nM

Question: And the Kd (Fibronectin)?
Answer: 6.5 nM

Question: What does the source list for `CO[C@H]1[C@H](O)[C@@H](NS(=O)(=O)O)[C@@H](O[C@H]2[C@H](O)[C@@H](OS(=O)(=O)O)[C@H](OC[C@@H](O)[C@@H](O)[C@H](O)[C@@H](O)CNc3cccc(NC(=O)CCCCC4CCSS4)c3)O[C@H]2C(=O)O)O[C@@H]1COS(=O)(=O)O` (stereo partly drawn)?
Answer: Kd [1]: 1000 nM; Kd (Fibronectin): 5.5 nM

Question: Which results are given for `CO[C@H]1[C@H](O)[C@@H](NS(=O)(=O)O)[C@@H](O[C@H]2[C@H](O)[C@@H](O)[C@H](OC[C@@H](O)[C@@H](O)[C@H](O)[C@@H](O)CNc3cccc(NC(=O)CCCCC4CCSS4)c3)O[C@@H]2C(=O)O)O[C@@H]1CO` (stereo partly drawn)?
Answer: Kd [1]: 4300 nM; Kd (Fibronectin): 33 nM
